Measured values published in patent US20250288584A1, “COMBINATIONS COMPRISING POSITIVE ALLOSTERIC MODULATORS OR ORTHOSTERIC AGONISTS OF METABOTROPIC GLUTAMATERGIC RECEPTOR SUBTYPE 2 AND THEIR USE” (JANSSEN PHARMACEUTICA NV, priority 2014, published 2025).
“Also recorded” adds a separate entry of the source. Where two headings read alike, the source gives them in different places.

Legend:
corneal kindled seizures = experiment: Mouse corneal kindling model; format: in vivo, mice; conditions: for Mean Seizure Score: Racine 0 to 5
Procedure: After the mice reached a stable kindled state, the test compound or vehicle was administered and, at the previously determined TPE, each animal was given the electrical stimulus indicated above. […] One dose of LEV and two doses of Co.

[1] = tested on: 6 Hz (44 mA) psychomotor seizures; experiment: 6 Hz psychomotor seizure test, 44 mA (alone, combination with LEV, isobolographic study); format: in vivo, mice
Procedure, shortened: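 Mice dosed s.c. or p.o. at 0.01 mL/g, alone or with LEV at fixed dose ratios proportional to ED50 values. Focal seizures induced by corneal stimulation (6 Hz, 0.2 msec pulse, 3 sec, 44 mA); animals without stun, forelimb clonus, vibrissae twitch or Straub-tail were counted as protected. ED50 values derived, with combinations analysed isobolographically.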

human mGlu2 receptor = target: T1, human mGlu2 receptor (Homo sapiens, UniProt Q14416); experiment: [35S]GTPγS binding assay, mGluR2 PAM; format: biochemical; conditions: for Emax: maximal % effect relative to control glutamate response, EC20 glutamate, read-out: GTPγS-hmGluR2 PAM Emax
T1 construct: expressed in transfected cells; host or cells: CHO cells
T1 sequence (Q14416 19-872): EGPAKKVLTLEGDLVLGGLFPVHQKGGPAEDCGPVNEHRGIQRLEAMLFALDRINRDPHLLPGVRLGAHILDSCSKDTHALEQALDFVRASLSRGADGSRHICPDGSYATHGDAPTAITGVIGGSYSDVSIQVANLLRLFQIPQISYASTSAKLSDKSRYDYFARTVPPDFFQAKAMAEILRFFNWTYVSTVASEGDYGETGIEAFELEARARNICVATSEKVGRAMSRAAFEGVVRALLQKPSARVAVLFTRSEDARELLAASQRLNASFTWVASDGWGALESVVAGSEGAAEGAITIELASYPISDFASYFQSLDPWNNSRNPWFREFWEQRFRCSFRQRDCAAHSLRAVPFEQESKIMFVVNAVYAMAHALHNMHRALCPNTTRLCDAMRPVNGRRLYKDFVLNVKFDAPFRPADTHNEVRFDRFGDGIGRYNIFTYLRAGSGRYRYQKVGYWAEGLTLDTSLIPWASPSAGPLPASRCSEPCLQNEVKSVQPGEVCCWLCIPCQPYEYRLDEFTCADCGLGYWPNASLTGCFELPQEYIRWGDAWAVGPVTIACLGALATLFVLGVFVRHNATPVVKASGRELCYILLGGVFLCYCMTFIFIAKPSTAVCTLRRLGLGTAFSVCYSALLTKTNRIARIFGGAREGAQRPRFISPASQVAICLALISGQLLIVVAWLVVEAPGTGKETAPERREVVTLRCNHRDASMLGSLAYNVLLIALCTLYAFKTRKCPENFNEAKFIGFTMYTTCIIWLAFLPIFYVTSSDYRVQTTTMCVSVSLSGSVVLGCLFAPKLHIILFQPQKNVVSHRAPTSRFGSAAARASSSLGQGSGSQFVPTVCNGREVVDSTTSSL

[2] = tested on: pentylenetetrazol seizures; conditions: in vivo; cited from earlier work

In the case of `Fc1ccc(N2CCN(Cc3ccn4c(CC5CC5)nnc4c3C(F)(F)F)CC2)c(F)c1` [Co. No. 1], the “Seizure score (dose) Corneal kindling / Mean Seizure Score” value (corneal kindled seizures; 20 mg/kg s.c., Racine score 0-5) is reported as 3.7, the “# protected/# tested” value (corneal kindled seizures; Co. No. 1 20 mg/kg) is reported as 5/16 and the “% Protected” value (corneal kindled seizures; Co. No. 1 20 mg/kg) is reported as 31%. The “# protected/# tested” value (corneal kindled seizures; Co. No. 1 30 mg/kg) was 3/12, the “% Protected” value (corneal kindled seizures; Co. No. 1 30 mg/kg) was 25% and the “Mean Seizure Score” value (corneal kindled seizures; Co. No. 1 30 mg/kg) was 4.0. For the same molecule, the responders at 2.5 mg/kg ([1]; Mus musculus, sc, 0.5 h, 2.5 mg/kg s.c., 0.5 h, read-out: # protected/# tested) was 0%, the responders at 10 mg/kg ([1]; Mus musculus, sc, 0.5 h, 10 mg/kg s.c., 0.5 h, read-out: # protected/# tested (converted)) was 50% and the responders at 15 mg/kg ([1]; Mus musculus, sc, 0.5 h, 15 mg/kg s.c., 0.5 h, read-out: # protected/# tested (converted)) was 87.5%. The responders at 20 mg/kg ([1]; Mus musculus, sc, 0.5 h, 20 mg/kg s.c., 0.5 h, read-out: # protected/# tested (converted)) was 100%, the ED50 ([1]; Mus musculus, sc, at TPE, compound alone, read-out: ED50 (95% CI) 44 mA) was 10.2 mg/kg and the “ED50 (95% CI) 44 mA” value ([1]; s.c., at TPE, compound alone) was 10.2 (3.1-12.4) mg/kg.

With `C[C@H](Oc1ccc(F)cc1F)c1ccn2c(CC3CC3)nnc2c1C(F)(F)F` [Co. No. 6-b, 3-(Cyclopropylmethyl)-7-[(1S)-1-(2,4-difluorophenoxy)ethyl]-8-(trifluoromethyl)[1,2,4]triazolo[4,3-a]pyridine] the Emax (human mGlu2 receptor) was 256%, the “activity when administered alone” value ([1]; 10 mg/kg p.o.) was “did not protect; also recorded: Co. No. 6-b 10 mg/kg, not active when administered alone” and the responders at 10 mg/kg ([1]; Mus musculus, po, 0.5 h, 10 mg/kg p.o., 0.5 h, read-out: # protected/# tested (converted)) was 0%. The responders at 15 mg/kg ([1]; Mus musculus, po, 0.5 h, 15 mg/kg p.o., 0.5 h, read-out: # protected/# tested (converted)) was 50%, the responders at 20 mg/kg ([1]; Mus musculus, po, 0.5 h, 20 mg/kg p.o., 0.5 h, read-out: # protected/# tested (converted)) was 75% and the responders at 40 mg/kg ([1]; Mus musculus, po, 0.5 h, 40 mg/kg p.o., 0.5 h, read-out: # protected/# tested (converted)) was 100%. For the same molecule, the ED50 ([1]; Mus musculus, po, 0.5 h, p.o., 0.5 h TPE, read-out: ED50 (95% CI) 44 mA) was 16.1 mg/kg and the “ED50 (95% CI) 44 mA” value ([1]; p.o., 0.5 h TPE) was 16.1 (13.0-20.1) mg/kg.

In the case of `CCCCn1ccc(N2CCC(c3ccc(F)cc3F)CC2)c(Cl)c1=O` [Co. No. 25-a], the EC50 (human mGlu2 receptor; in presence of EC20 glutamate, read-out: GTPγS-hmGluR2 PAM pEC50 (converted)) is reported as 85.1 nM, the Emax (human mGlu2 receptor) is reported as 261% and the “activity when administered alone” value ([1]; 10 mg/kg s.c.) is reported as “did not protect; also recorded: Co. No. 25-a (s.c.) 10 mg/kg tested in combination with LEV (i.p.)-Co. No. 25-a 10 mg/kg, not active when administered alone”. For the same molecule, the responders at 5 mg/kg ([1]; Mus musculus, sc, 0.25 h, 5 mg/kg s.c., 0.25 h, read-out: # protected/# tested) was 0%, the responders at 10 mg/kg ([1]; Mus musculus, sc, 0.25 h, 10 mg/kg s.c., 0.25 h, read-out: # protected/# tested (converted)) was 0% and the responders at 20 mg/kg ([1]; Mus musculus, sc, 0.25 h, 20 mg/kg s.c., 0.25 h, read-out: # protected/# tested (converted)) was 25%. The responders at 30 mg/kg ([1]; Mus musculus, sc, 0.25 h, 30 mg/kg s.c., 0.25 h, read-out: # protected/# tested (converted)) was 37.5%, the responders at 40 mg/kg ([1]; Mus musculus, sc, 0.25 h, 40 mg/kg s.c., 0.25 h, read-out: # protected/# tested (converted)) was 87.5% and the ED50 ([1]; Mus musculus, sc, 0.25 h, s.c., 0.25 hr TPE, read-out: ED50 (95% CI) 44 mA) was 29.1 mg/kg. The ED50 ([1]; Mus musculus, sc, 1 h, s.c., 1 hr TPE, read-out: ED50 (95% CI) 44 mA) was 25.9 mg/kg, the “ED50 (95% CI) 44 mA” value ([1]; s.c., 0.25 hr TPE) was “ED50 (95% CI): 29.1 mg/kg (21.6 to 39.6)” and the “ED50 (95% CI) 44 mA” value ([1]; s.c., 1 hr TPE) was 1 hr TPE: 25.9 mg/kg.

With `CC[C@@H](C(N)=O)N1CCCC1=O` [LEV, (S)-2-(2-oxopyrrolidin-1-yl) butanamide, reference compound] the “# protected/# tested” value (corneal kindled seizures; LEV 3 mg/kg) was 5/13, the “% Protected” value (corneal kindled seizures; LEV 3 mg/kg) was 38% and the “Mean Seizure Score” value (corneal kindled seizures; LEV 3 mg/kg) was 3.3. The “activity in pentylenetetrazol seizure test” value [2] was “no activity”, the “# protected/# tested” value ([1]; LEV (low-dose) control group 25 mg/kg) was 1/8 and the “# protected/# tested” value ([1]; LEV alone 10 mg/kg i.p., 1 h) was “⅙”. The responders at 200 mg/kg ([1]; Mus musculus, 6 Hz (44 mA), LEV alone 200 mg/kg, read-out: # protected/# tested (converted)) was 25%, the responders at 400 mg/kg ([1]; Mus musculus, 6 Hz (44 mA), LEV alone 400 mg/kg, read-out: # protected/# tested (converted)) was 44.4% and the responders at 800 mg/kg ([1]; Mus musculus, 6 Hz (44 mA), LEV alone 800 mg/kg, read-out: # protected/# tested (converted)) was 83.3%. For the same molecule, the ED50 ([1]; Mus musculus, ip, 1 h, 6 Hz (44 mA), LEV alone, i.p., 1 h TPE, read-out: LEV ED50 (95% CI)) was 345 mg/kg, the responders at 10 mg/kg ([1]; Mus musculus, ip, 1 h, LEV alone 10 mg/kg i.p., 1 h, read-out: # protected/# tested (converted)) was 16.7% and the ED50 ([1]; Mus musculus, ip, 1 h, i.p., 1 h TPE, read-out: ED50 (95% CI) 44 mA, LEV alone) was ~345 mg/kg. It also gave a responders at 200 mg/kg ([1]; Mus musculus, ip, LEV alone 200 mg/kg i.p., read-out: # protected/# tested (converted)) of 25%, a responders at 350 mg/kg ([1]; Mus musculus, ip, LEV alone 350 mg/kg i.p., read-out: # protected/# tested (converted)) of 37.5% and a responders at 400 mg/kg ([1]; Mus musculus, ip, LEV alone 400 mg/kg i.p., read-out: # protected/# tested (converted)) of 44.4%. The responders at 800 mg/kg ([1]; Mus musculus, ip, LEV alone 800 mg/kg i.p., read-out: # protected/# tested (converted)) was 83.3% and the “Maximum Effect (% Protection)” value ([1]; compound alone) was 75%.
